PubChem BioAssay AID330 (DTP/NCI, 2004)
Several values for one entry are separate records, joined by “and”; a condition that tells them apart may be missing. Identical values can stand only once. Inconclusive results and toxic doses are left out. Rule for the calls: active = survival T/C of 150% or more; inactive = T/C below 125% in these data.

Tested on: P388 leukemia ip, CD2F1 mice, survival T/C
Assay: NCI In Vivo Anticancer Drug Screen. Data for tumor model P388 Leukemia (intraperitoneal) in CD2F1 (CDF1) mice
Settings: endpoint: median survival time, higher = longer survival
In short: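 Mice carrying the transplanted tumor received test compound or vehicle. Survival was recorded in each group, and the value is the treated-group measurement divided by that of the vehicle-treated control group.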

[1] = dose: 60.0 mg/kg/injection, schedule: Q01DX005 (ip), vehicle: saline with Tween-80
[2] = dose: 120.0 mg/kg/injection, schedule: Q01DX005 (ip), vehicle: saline with Tween-80
[3] = dose: 240.0 mg/kg/injection, schedule: Q01DX005 (ip), vehicle: saline with Tween-80
[4] = dose: 50.0 mg/kg/injection, schedule: Q01DX005 (ip), vehicle: Klucel (hydroxypropylcellulose) (HPC)
[5] = dose: 100.0 mg/kg/injection, schedule: Q01DX005 (ip), vehicle: Klucel (hydroxypropylcellulose) (HPC)
[6] = dose: 200.0 mg/kg/injection, schedule: Q01DX005 (ip), vehicle: Klucel (hydroxypropylcellulose) (HPC)
[7] = dose: 100.0 mg/kg/injection, schedule: Q01DX001 (ip), vehicle: Klucel (hydroxypropylcellulose) (HPC)
[8] = dose: 200.0 mg/kg/injection, schedule: Q01DX001 (ip), vehicle: Klucel (hydroxypropylcellulose) (HPC)
[9] = dose: 100.0 mg/kg/injection, schedule: Q01DX009 (ip), vehicle: saline with Tween-80
[10] = dose: 200.0 mg/kg/injection, schedule: Q01DX009 (ip), vehicle: saline with Tween-80
[11] = dose: 50.0 mg/kg/injection, schedule: Q01DX009 (ip), vehicle: saline with Tween-80
[12] = dose: 50.0 mg/kg/injection, schedule: Q01DX001 (ip), vehicle: Klucel (hydroxypropylcellulose) (HPC)
[13] = dose: 100.0 mg/kg/injection, schedule: Q01DX001 (ip), vehicle: saline
[14] = dose: 200.0 mg/kg/injection, schedule: Q01DX001 (ip), vehicle: saline

Measured: T/C

O=C1CCCCCCCC(=O)Nc2ccc3nc4ccccc4c(c3c2)SCCCCCCCCCSc2c3ccccc3nc3ccc(cc23)N1
inactive: [1] 88 % of control | [2] 99 % of control | [3] 96 % of control

C[n+]1ccc(C(c2ccccc2)c2ccccc2)cc1
inactive: dose: 6.25 mg/kg/injection, schedule: Q01DX009 (ip), vehicle: saline 104 % of control | dose: 12.5 mg/kg/injection, schedule: Q01DX009 (ip), vehicle: saline 112 % of control | dose: 25.0 mg/kg/injection, schedule: Q01DX009 (ip), vehicle: saline 100 % of control

O=c1oc(-c2ccccc2)nc2c1CCS2
inactive: [4] 93 % of control | [5] 97 % of control | [6] 90 % of control

COC1=C(Br)C(=O)N/C1=C(\OC)c1ccccc1
inactive: [1] 89 % of control | [2] 98 % of control | [3] 89 % of control

CC(=O)N1NC(=O)c2c(c3ccccc3n2C)C1c1ccc(C)cc1 (stereo unspecified)
inactive: [7] 100 % of control | [8] 110 % of control | dose: 400.0 mg/kg/injection, schedule: Q01DX001 (ip), vehicle: Klucel (hydroxypropylcellulose) (HPC) 110 % of control

C/C=C/C=c1/[nH]c(=O)/c(=C\c2ccccc2)[nH]c1=O
inactive: dose: 50.0 mg/kg/injection, schedule: Q01DX009 (ip), vehicle: Klucel (hydroxypropylcellulose) (HPC) 104 % of control | dose: 100.0 mg/kg/injection, schedule: Q01DX009 (ip), vehicle: Klucel (hydroxypropylcellulose) (HPC) 104 % of control | dose: 200.0 mg/kg/injection, schedule: Q01DX009 (ip), vehicle: Klucel (hydroxypropylcellulose) (HPC) 103 % of control

Cn1cnc([N+](=O)[O-])c1S(N)(=O)=O
inactive: [9] 88 % of control | [10] 123 % of control

COc1ccc2nccc(C(=O)CCC3CCN(C(=O)c4ccc([N+](=O)[O-])cc4)CC3C(Br)CBr)c2c1 (stereo unspecified)
inactive: dose: 100.0 mg/kg/injection, schedule: Q04DX002 (ip), vehicle: saline with Tween-80 108 % of control | dose: 200.0 mg/kg/injection, schedule: Q04DX002 (ip), vehicle: saline with Tween-80 105 % of control

COC(=O)C(CS)NC(=O)CCNC(=O)OCc1ccccc1 (stereo unspecified)
inactive: dose: 25.0 mg/kg/injection, schedule: Q04DX003 (ip), vehicle: sodium bicarbonate 91 % of control | dose: 50.0 mg/kg/injection, schedule: Q04DX003 (ip), vehicle: sodium bicarbonate 87 % of control | dose: 100.0 mg/kg/injection, schedule: Q04DX003 (ip), vehicle: sodium bicarbonate 96 % of control | dose: 200.0 mg/kg/injection, schedule: Q04DX003 (ip), vehicle: sodium bicarbonate 87 % of control | dose: 400.0 mg/kg/injection, schedule: Q04DX003 (ip), vehicle: sodium bicarbonate 91 % of control

CCSc1nnc(C2CCC(=O)N2Cc2ccccc2)o1 (stereo unspecified)
inactive: [1] 94 % of control | [2] 100 % of control | [3] 100 % of control

CSC(=S)/C(=C(/[O-])c1ccccc1)[n+]1cccc(C)c1
inactive: dose: 2.5 mg/kg/injection, schedule: Q04DX002 (ip), vehicle: saline with Tween-80 99 % of control | dose: 5.0 mg/kg/injection, schedule: Q04DX002 (ip), vehicle: saline with Tween-80 106 % of control | dose: 10.0 mg/kg/injection, schedule: Q04DX002 (ip), vehicle: saline with Tween-80 106 % of control

COc1cc(C(Nc2ccccn2)c2cc3c(cc2O)OCO3)cc(OC)c1OC (stereo unspecified)
inactive: [1] 100 % of control | [2] 94 % of control | [3] 94 % of control

O=c1oc(-c2ccccc2)nc2c1CCCS2
inactive: [4] 100 % of control | [5] 99 % of control and 103 % of control | [6] 103 % of control and 89 % of control

CCC(C(=O)Nc1ccccc1-c1ccccc1)c1ccccc1 (stereo unspecified)
inactive: dose: 6.25 mg/kg/injection, schedule: Q01DX009 (ip), vehicle: saline with Tween-80 110 % of control | dose: 12.5 mg/kg/injection, schedule: Q01DX009 (ip), vehicle: saline with Tween-80 101 % of control | dose: 25.0 mg/kg/injection, schedule: Q01DX009 (ip), vehicle: saline with Tween-80 96 % of control | dose: 100.0 mg/kg/injection, schedule: Q01DX009 (ip), vehicle: saline 96 % of control | dose: 200.0 mg/kg/injection, schedule: Q01DX009 (ip), vehicle: saline 87 % of control

COc1ccc2cccc3c4cccc5ccc(OC)c(c1c23)c54
inactive: [4] 97 % of control | [5] 99 % of control | [6] 99 % of control

CC(C)(C)OC(=O)NC(Cc1cn(Cc2ccccc2)cn1)C(=O)O (stereo unspecified)
inactive: [11] 96 % of control | [9] 89 % of control | [10] 108 % of control

CCCCCCCCOC(=O)COc1ccc(Cl)cc1Cl
inactive: [12] 113 % of control | dose: 50.0 mg/kg/injection, schedule: Q01DX001 (ip), vehicle: saline with Tween-80 98 % of control | [7] 109 % of control | dose: 100.0 mg/kg/injection, schedule: Q01DX001 (ip), vehicle: saline with Tween-80 100 % of control | [8] 122 % of control | dose: 200.0 mg/kg/injection, schedule: Q01DX001 (ip), vehicle: saline with Tween-80 105 % of control

C1=C(/N=NNc2ccccc2)CCCCCC/1
inactive: dose: 50.0 mg/kg/injection, schedule: Q01DX005 (ip), vehicle: Klucel + Tween-80 102 % of control | dose: 100.0 mg/kg/injection, schedule: Q01DX005 (ip), vehicle: Klucel + Tween-80 100 % of control | dose: 200.0 mg/kg/injection, schedule: Q01DX005 (ip), vehicle: Klucel + Tween-80 104 % of control

COC(=O)/C=C(\C)Oc1cc(Cl)c(Cl)cc1Cl
inactive: [9] 91 % of control | dose: 400.0 mg/kg/injection, schedule: Q01DX009 (ip), vehicle: saline with Tween-80 87 % of control

Cc1ccc(N=Nc2c(-c3cccs3)nn(C(N)=S)c2C(F)(F)F)cc1
inactive: dose: 12.5 mg/kg/injection, schedule: Q01DX005 (ip), vehicle: Klucel (hydroxypropylcellulose) (HPC) 103 % of control | dose: 25.0 mg/kg/injection, schedule: Q01DX005 (ip), vehicle: Klucel (hydroxypropylcellulose) (HPC) 98 % of control | [4] 98 % of control

NC(=O)NC1CC1c1ccc(Cl)c(Cl)c1 (stereo unspecified)
inactive: [4] 103 % of control | [5] 99 % of control | [6] 114 % of control

Cc1cccn2cc(CC(=O)O)nc12
inactive: [13] 105 % of control | [14] 104 % of control | dose: 400.0 mg/kg/injection, schedule: Q01DX001 (ip), vehicle: saline 109 % of control

Cc1nnc(Cc2ccc([N+](=O)[O-])cc2)c2n[nH]c(C)c12
inactive: dose: 25.0 mg/kg/injection, schedule: Q01DX001 (ip), vehicle: Klucel (hydroxypropylcellulose) (HPC) 104 % of control | [12] 102 % of control | [7] 109 % of control | dose: 100.0 mg/kg/injection, schedule: Q04DX002 (ip), vehicle: Klucel (hydroxypropylcellulose) (HPC) 90 % of control

CC1NCCCN(CCN(C)C)CCCNC(C)c2cccc1n2 (stereo unspecified)
inactive: dose: 50.0 mg/kg/injection, schedule: Q01DX001 (ip), vehicle: saline 103 % of control and 96 % of control | [13] 101 % of control and 114 % of control and 92 % of control | [14] 103 % of control and 122 % of control and 97 % of control

Nc1ncnc2c1cnn2Cc1ccc(Cl)cc1
inactive: [11] 100 % of control | [9] 100 % of control

CC1(CSc2ccc3ccccc3c2)CC(=O)N1 (stereo unspecified)
inactive: dose: 100.0 mg/kg/injection, schedule: Q01DX001 (ip), vehicle: suspension in saline 99 % of control | dose: 200.0 mg/kg/injection, schedule: Q01DX001 (ip), vehicle: suspension in saline 99 % of control | dose: 400.0 mg/kg/injection, schedule: Q01DX001 (ip), vehicle: suspension in saline 98 % of control

O=C1C2C3C=CC(C3)C2C(=O)N1O (stereo unspecified)
inactive: dose: 50.0 mg/kg/injection, schedule: Q01DX005 (ip), vehicle: saline with Tween-80 101 % of control | dose: 100.0 mg/kg/injection, schedule: Q01DX005 (ip), vehicle: saline with Tween-80 100 % of control | dose: 200.0 mg/kg/injection, schedule: Q01DX005 (ip), vehicle: saline with Tween-80 100 % of control

O=C(NC(=NC(=Nc1ccccc1)c1ccccc1)c1ccccc1)c1ccccc1
inactive: [11] 99 % of control | [9] 102 % of control | [10] 99 % of control

O=C1CSC(c2ccc(F)cc2)N1c1nncs1 (stereo unspecified)
inactive: [1] 99 % of control | [2] 97 % of control | [3] 101 % of control
